Measured values reported in US12543767B2, “Oral supplements containing enriched phenolic compound extracts combined with organic acid sodium salts, creatines and/or creatine salts” (Phenolics, LLC, priority 2021, dated 2026).
Values joined by “and” are separate entries in the source; they are usually repeats but may differ in a detail not shown here. Equal values may be shown once.

Key:
[1] = system: men; assay: Clinical study: fatigue test, 50 maximal unilateral isokinetic leg extensions, before and after 28 days of supplementation; assay type: in vivo; settings: for Peak Torque: mean of first three repetitions
Procedure: The supplements were designed to be as similar as possible in volume, color, and taste, and included 5.0 g of phosphocreatine disodium salts plus 200 mg of blueberry extract in the supplements for the Phosphocreatine/Blueberry Group, 3.0 g of creatine monohydrate for the Creatine Group, and microcrystalline cellulose for the placebo group. The bulk powder mixtures were sieved through a 60-mesh sieve to ensure inform particle size and to get rid of the agglomerates. They were then blended for one hour using an Erweka V-mixer (Model AR 403, Erweka America Inc., Edison, NJ) prior to packaging. Homogeneity of mixing was visually confirmed with the coloring agents used. Blended powders were accurately weighed (mass±1%) into individual foil lined pouches using a calibrated balance (Model SX 410, Denver Instruments, Bohemia, NY) and heat sealed. Five quality control samples were randomly selected from the packaged batch throughout the packaging process to ensure even distribution of contents, verified by mass for all samples and for creatine content in non-placebo samples by HPLC analysis.
The study was implemented as a double-blind, placebo-controlled, parallel design study. The study included a familiarization visit with each of the participants, a pre-supplementation test visit, 28 days of daily supplementation, and a post-supplementation test visit. During the testing visits, the subjects performed the fatigue test of Thorstensson and Karlsson which consisted of 50 maximal, unilateral, concentric, isokinetic leg extensions of the left leg at 180°·s^−1.
After completion of the pre-supplementation test visit, the participants were randomly assigned to one of the three groups described above. The subjects were provided with 28 days of individually packaged packets of powder of their assigned supplement and were instructed to mix the contents of the packet with 8 oz of water and drink it immediately after mixing. The subjects were instructed to maintain their usual exercise and dietary habits throughout the study. Each subject completed a 3-day dietary recall form and a 7-day exercise recall form prior to the pre-supplementation testing visit and prior to the post-supplementation testing visit to determine if there were changes in total caloric and macronutrient intake as well as exercise time during the supplementation period.
Before and after the 28 day supplementation regimens, peak torque, average power and percent decline for peak torque and average power were assessed from a fatigue test consisting of 50 maximal, unilateral, isokinetic leg extensions at 180°·s^−1.
During both pre-supplementation and post-supplementation test visits, peak torque and average power were assessed during the fatigue tests. Peak torque and average power were defined as the mean values from the first three repetitions of the fatigue test. Average power was operationally defined in the as the time averaged, integrated area under the isokinetic torque curve. To calculate the average power, the voltage-time relationships were converted to the isokinetic torque curve by converting the voltage to torque in N·m based on a regression equation. Integration of the area under the torque curve was accomplished using a custom LabVIEW program (National Instrument, Austin, TX, USA) and the average power was then calculated by dividing the integrated area under the torque curve by the time for each isokinetic repetition.

[2] = system: CaCo2 cell model for intestinal barrier; assay: Diffusion of extract polyphenols/flavonoids through confluent CaCo2 monolayer in side by side diffusion cells; assay type: in vitro ADME; settings: 10 mM alpha, beta or gamma cyclodextrin with blueberry polyphenol solution ~1 mg/ml
[3] = pre- to post-supplement, 28 days, monohydrate

For CN(CC(=O)O)C(=N)N.O [Creatine Group, creatine monohydrate], the “Average Power” value ([1]; Post-Supplement (28 days)) was 159.78 ± 31.20 Watts, the “Peak Torque” value ([1]; Post-Supplement (28 days)) was 111.97 ± 24.50 and the “Average Power” value ([1]; Pre-Supplement) was 143.42 ± 33.84 Watts. The “Peak Torque” value ([1]; Pre-Supplement) was 99.95 ± 22.50, the “Average Power Change (%)” value [1, 3] was 10.22% and 10.22 ± 13.62% and the “Peak Torque Change (%)” value [1, 3] was 10.47% and 10.47 ± 11.03%.

For OC[C@H]1O[C@@H]2O[C@H]3[C@H](O)[C@@H](O)[C@@H](O[C@H]4[C@H](O)[C@@H](O)[C@@H](O[C@H]5[C@H](O)[C@@H](O)[C@@H](O[C@H]6[C@H](O)[C@@H](O)[C@@H](O[C@H]7[C@H](O)[C@@H](O)[C@@H](O[C@H]8[C@H](O)[C@@H](O)[C@@H](O[C@H]1[C@H](O)[C@H]2O)O[C@@H]8CO)O[C@@H]7CO)O[C@@H]6CO)O[C@@H]5CO)O[C@@H]4CO)O[C@@H]3CO [beta cyclodextrin], the “effect of cyclodextrin on permeation of blueberry phenolics thru the CaCo2 membrane” value [2] was “best effect on increasing the permeation”.
